Assay results from ChEMBL document CHEMBL4368860, “Structure activity relationship of 2-arylalkynyl-adenine derivatives as human A3 adenosine receptor antagonists” (Medchemcomm, 2018).

Legend:
[1] = biological target: Sodium-dependent noradrenaline transporter (Homo sapiens, UniProt P23975); assay: Displacement of [3H]Nisoxetine from human NET expressed in HEK cells by radioligand binding assay; assay type: cell-based
[2] = biological target: Adenosine receptor A2a (Homo sapiens, UniProt P29274); assay: Displacement of [3H]ZM241385 from human A2A receptor expressed in HEK293 cell membranes at 10 uM; conditions: HEK293 cell membranes expressing human A2A receptor, probe [3H]ZM241385
Adenosine receptor A2a (Homo sapiens, UniProt P29274), sequence (P29274 whole entry): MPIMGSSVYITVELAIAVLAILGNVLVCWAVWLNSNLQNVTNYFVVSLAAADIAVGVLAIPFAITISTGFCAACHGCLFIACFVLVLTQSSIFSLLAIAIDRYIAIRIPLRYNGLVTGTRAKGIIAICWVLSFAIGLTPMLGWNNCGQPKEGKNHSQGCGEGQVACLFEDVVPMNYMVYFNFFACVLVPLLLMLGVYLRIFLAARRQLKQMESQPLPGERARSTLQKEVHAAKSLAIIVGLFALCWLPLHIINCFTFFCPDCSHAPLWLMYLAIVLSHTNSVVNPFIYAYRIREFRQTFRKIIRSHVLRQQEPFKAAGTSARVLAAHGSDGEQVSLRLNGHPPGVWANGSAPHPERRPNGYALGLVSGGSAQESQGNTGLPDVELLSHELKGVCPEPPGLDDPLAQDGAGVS

[3] = biological target: Sigma intracellular receptor 2 (Homo sapiens, UniProt Q5BJF2); assay: Displacement of [3H]-DTG from human sigma 2 receptor
Sigma intracellular receptor 2, sequence (Q5BJF2 whole entry): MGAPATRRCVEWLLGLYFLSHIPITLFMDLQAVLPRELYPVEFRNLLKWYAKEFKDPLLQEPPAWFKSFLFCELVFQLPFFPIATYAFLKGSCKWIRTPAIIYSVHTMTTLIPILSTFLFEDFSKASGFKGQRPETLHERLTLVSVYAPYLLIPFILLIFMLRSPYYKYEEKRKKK

[4] = biological target: T1, Adenosine receptor A3 (Homo sapiens, UniProt P0DMS8); assay: Displacement of [125I]I-AB-MECA from recombinant human adenosine A3 receptor expressed in CHO cell membranes
T1 sequence (P0DMS8 whole entry): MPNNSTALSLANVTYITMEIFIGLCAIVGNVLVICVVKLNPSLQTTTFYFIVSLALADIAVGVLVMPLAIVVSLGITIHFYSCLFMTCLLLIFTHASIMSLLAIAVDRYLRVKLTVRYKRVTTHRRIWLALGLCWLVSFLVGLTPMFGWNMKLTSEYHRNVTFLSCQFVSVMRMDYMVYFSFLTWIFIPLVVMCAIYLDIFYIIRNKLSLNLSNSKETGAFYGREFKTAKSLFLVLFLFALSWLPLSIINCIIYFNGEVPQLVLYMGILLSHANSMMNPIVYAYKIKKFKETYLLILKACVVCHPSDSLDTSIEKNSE

[5] = biological target: Adenosine receptor A3 (Mus musculus, UniProt Q61618); assay: Displacement of [125I]I-AB-MECA from recombinant mouse adenosine A3 receptor expressed in HEK293 cell membranes
Adenosine receptor A3 (Mus musculus, UniProt Q61618), sequence (Q61618 whole entry): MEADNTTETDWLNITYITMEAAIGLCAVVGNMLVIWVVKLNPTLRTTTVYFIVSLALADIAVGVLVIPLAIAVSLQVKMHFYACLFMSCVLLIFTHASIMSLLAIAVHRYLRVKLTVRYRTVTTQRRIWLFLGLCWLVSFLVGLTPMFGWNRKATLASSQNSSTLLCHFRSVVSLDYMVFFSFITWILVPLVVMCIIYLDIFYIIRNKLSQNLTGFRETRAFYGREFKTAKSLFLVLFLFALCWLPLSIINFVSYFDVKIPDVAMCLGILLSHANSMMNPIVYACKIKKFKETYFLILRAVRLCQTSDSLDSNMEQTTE

[6] = organism: Homo sapiens; assay: Selectivity ratio of Ki for displacement of [125I]I-AB-MECA from recombinant mouse adenosine A3 receptor expressed in HEK293 cell membranes to Ki for displacement of [125I]I-AB-MECA from recombinant human adenosine A3 receptor
[7] = biological target: T2, Adenosine receptor A1 (Homo sapiens) (UniProt P30542); assay: Displacement of [3H]DPCPX from recombinant human A1 receptor expressed in CHO cell membranes at 10 uM
T2 sequence (whole entry): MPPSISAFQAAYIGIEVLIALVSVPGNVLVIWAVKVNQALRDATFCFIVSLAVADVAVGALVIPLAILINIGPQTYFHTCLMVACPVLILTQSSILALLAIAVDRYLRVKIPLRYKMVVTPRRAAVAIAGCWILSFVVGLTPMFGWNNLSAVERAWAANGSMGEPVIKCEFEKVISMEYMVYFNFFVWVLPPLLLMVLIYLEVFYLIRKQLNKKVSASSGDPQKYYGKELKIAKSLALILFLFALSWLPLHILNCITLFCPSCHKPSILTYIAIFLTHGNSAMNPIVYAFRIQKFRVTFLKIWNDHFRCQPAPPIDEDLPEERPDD

[8] = biological target: Adenosine receptor A2a (Mus musculus, UniProt Q60613); assay: Displacement of [3H]ZM241385 from mouse A2A receptor at 10 uM; conditions: probe [3H]ZM241385
Adenosine receptor A2a (Mus musculus, UniProt Q60613), sequence (Q60613 whole entry): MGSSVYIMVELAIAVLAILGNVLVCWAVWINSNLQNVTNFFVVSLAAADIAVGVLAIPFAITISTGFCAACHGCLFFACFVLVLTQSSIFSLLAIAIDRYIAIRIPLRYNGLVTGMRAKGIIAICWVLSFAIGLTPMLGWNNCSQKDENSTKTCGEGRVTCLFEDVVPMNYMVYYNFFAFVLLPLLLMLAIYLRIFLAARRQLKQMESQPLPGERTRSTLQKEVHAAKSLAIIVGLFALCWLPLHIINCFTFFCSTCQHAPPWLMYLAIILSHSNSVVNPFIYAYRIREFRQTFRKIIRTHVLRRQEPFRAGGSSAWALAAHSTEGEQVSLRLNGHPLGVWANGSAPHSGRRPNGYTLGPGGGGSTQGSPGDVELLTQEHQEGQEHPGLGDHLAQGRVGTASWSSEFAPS

[9] = biological target: Adenosine receptor A1 (Mus musculus) (UniProt Q60612); assay: Displacement of [3H]DPCPX from mouse A1 receptor at 10 uM
Adenosine receptor A1 (Mus musculus), sequence (Q60612 whole entry): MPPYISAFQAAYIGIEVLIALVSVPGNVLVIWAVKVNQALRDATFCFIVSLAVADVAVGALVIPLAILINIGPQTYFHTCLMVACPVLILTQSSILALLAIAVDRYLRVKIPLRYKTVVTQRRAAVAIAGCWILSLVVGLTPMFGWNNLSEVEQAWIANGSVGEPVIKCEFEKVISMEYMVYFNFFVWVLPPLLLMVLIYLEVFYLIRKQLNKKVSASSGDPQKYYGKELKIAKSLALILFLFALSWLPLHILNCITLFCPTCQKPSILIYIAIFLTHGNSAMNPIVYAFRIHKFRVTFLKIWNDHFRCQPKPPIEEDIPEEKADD

Sodium-dependent noradrenaline transporter, sequence (P23975 whole entry): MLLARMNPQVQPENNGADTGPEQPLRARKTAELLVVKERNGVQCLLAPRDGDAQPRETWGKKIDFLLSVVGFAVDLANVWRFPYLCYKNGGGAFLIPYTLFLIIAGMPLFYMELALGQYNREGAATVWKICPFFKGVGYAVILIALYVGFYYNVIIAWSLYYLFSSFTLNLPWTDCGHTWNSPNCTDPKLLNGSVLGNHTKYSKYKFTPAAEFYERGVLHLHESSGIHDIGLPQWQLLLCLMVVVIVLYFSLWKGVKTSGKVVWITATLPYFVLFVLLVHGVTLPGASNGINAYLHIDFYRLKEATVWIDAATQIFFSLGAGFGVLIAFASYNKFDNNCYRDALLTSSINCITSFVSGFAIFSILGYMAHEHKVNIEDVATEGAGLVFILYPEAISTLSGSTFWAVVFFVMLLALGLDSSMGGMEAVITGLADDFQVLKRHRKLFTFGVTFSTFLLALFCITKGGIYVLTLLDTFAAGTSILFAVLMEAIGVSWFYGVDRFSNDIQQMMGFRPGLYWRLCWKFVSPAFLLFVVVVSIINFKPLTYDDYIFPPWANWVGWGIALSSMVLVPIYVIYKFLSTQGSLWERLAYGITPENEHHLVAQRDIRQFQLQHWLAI

Ki [1]: 2800 nM
inhibition at 10 µM [2]: 22%
Ki [3]: 1300 nM
Ki [4]: 20 nM
Ki [5]: 480 nM
inhibition [7]: 30%
inhibition at 10 µM [8]: 13%
inhibition [9]: 39%
SMILES: C[C@@]12C[C@@H]1[C@@H](n1cnc3c(NCCc4ccccc4)nc(C#Cc4ccccc4)nc31)[C@H](O)[C@@H]2O
Ratio Ki [6]: 24
